Assay results: paper PMC8160793, “Potent Antimicrobial and Antibiofilm Activities of Feleucin-K3 Analogs Modified by α-(4-Pentenyl)-Ala against Multidrug-Resistant Bacteria” (Biomolecules, 2021)
Converted amounts (≈) assume the structure as drawn. Square brackets hold non-standard residues; d marks the D form. Peptide text beside a SMILES is read from it. ξ: configuration not given here. ξαMeGly(pent-4-enyl) = C=CCCCC(C)(N)C(=O)O

Tests used:
P. aeruginosa ATCC 27853 = format: cell-based, Pseudomonas aeruginosa; conditions: ATCC 27853, 18 h
Method: The minimum inhibitory concentration (MIC) of the Feleucin-K3 analogs was tested by the broth microdilution method. Sensitive bacteria and drug-resistant bacteria were diluted to 1 × 10^6 CFU/mL, according to the McFarland standards. Bacterial suspension and peptide solutions (8–128 μg/mL) were incubated at 37 °C for 18 h. The minimum concentration without obvious bacterial growth was the MIC of the peptides. The stability of the analogs in a physiological salt environment was also investigated. In brief, salt powder (450-mM NaCl) was dissolved in deionized water, and the following investigational steps were the same as those described before. The above steps were repeated several times, until the same value was obtained three times.

A. baumannii 51243 = format: cell-based, Acinetobacter baumannii; conditions: 51243, 18 h
Procedure, shortened: (§1)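 Inoculum 1 × 10^6 CFU/mL (McFarland); peptide 8–128 μg/mL; 37 °C, 18 h; MIC = no visible growth. Salt variant: 450-mM NaCl, same protocol. Replicated until three identical values.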

A. baumannii 91810 = format: cell-based, Acinetobacter baumannii; conditions: 91810, 18 h
Procedure, shortened: as §1

A. baumannii 9234 = format: cell-based, Acinetobacter baumannii; conditions: 9234, 18 h
Procedure, shortened: as §1

A. baumannii 92359 = format: cell-based, Acinetobacter baumannii; conditions: 92359, 18 h
Procedure, shortened: as §1

A. baumannii 9336 = format: cell-based, Acinetobacter baumannii; conditions: 9336, 18 h
Procedure, shortened: as §1

A. baumannii 98110 = format: cell-based, Acinetobacter baumannii; conditions: 98110, 18 h
Procedure, shortened: as §1

MRSA ATCC 33591 = format: cell-based, Staphylococcus aureus; conditions: ATCC 33591, 24 h
Method: (§2) The antibiofilm activity of the peptides was determined according to the previously described methods. Strains (final concentration of 5 × 10^5 CFU/mL) and peptides (4–128 μg/mL) were incubated for 24 h at 37 °C. Biofilm cells were cleaned with 0.01-M PBS and fixed with methanol. Crystal violet (0.1%, HopeBiol, Qingdao, China) was used to stain the biofilm cells for 10 min. After washing with water, 95% ethanol was finally added, and the optical density at 595 nm was measured with a microplate reader (Flex Station 3; Laguna Hills, CA, USA).

S. aureus ATCC 25923 = format: cell-based, Staphylococcus aureus; conditions: ATCC 25923, 24 h
Method: as §2

E. coli ATCC 25922 = format: cell-based; conditions: ATCC 25922, 24 h
Method: as §2

P.aeruginosa ATCC 27853 = format: cell-based, Pseudomonas aeruginosa; conditions: ATCC 27853, 24 h
Method: as §2

SMILES | MIC, P. aeruginosa ATCC 27853 (P. aeruginosa ATCC 27853) | MIC, A. baumannii 51243 (A. baumannii 51243) | MIC, A. baumannii 91810 (A. baumannii 91810) | MIC, A. baumannii 9234 (A. baumannii 9234) | MIC, A. baumannii 92359 (A. baumannii 92359) | MIC, A. baumannii 9336 (A. baumannii 9336) | MIC, A. baumannii 98110 (A. baumannii 98110) | MBIC50, MRSA ATCC 33591 (MRSA ATCC 33591) | MBIC90, MRSA ATCC 33591 (MRSA ATCC 33591) | MBIC50, S. aureus ATCC 25923 (S. aureus ATCC 25923) | MBIC90, S. aureus ATCC 25923 (S. aureus ATCC 25923) | MBIC50, E. coli ATCC 25922 (E. coli ATCC 25922) | MBIC90, E. coli ATCC 25922 (E. coli ATCC 25922) | MBIC50, P.aeruginosa ATCC 27853 (P.aeruginosa ATCC 27853) | MBIC90, P.aeruginosa ATCC 27853 (P.aeruginosa ATCC 27853)
C=CCCCC(C)(N)C(=O)N[C@@H](CC(C)C)C(=O)N[C@@H](CCCCN)C(=O)N[C@@H](CC(C)C)C(=O)N[C@@H](CC(C)C)C(=O)N[C@@H](CCCCN)C(=O)N[C@@H](CCCCN)C(=O)N[C@@H](CC(C)C)C(=O)N[C@@H](CC(C)C)C(N)=O (stereo partly drawn) [Feleucin-K65] (H-[ξαMeGly(pent-4-enyl)]LKLLKKLL-NH2) | 8 µg/mL (≈ 7.23 µM) | 4 µg/mL (≈ 3.61 µM) | 4 µg/mL (≈ 3.61 µM) | 4 µg/mL (≈ 3.61 µM) | 4 µg/mL (≈ 3.61 µM) | 4 µg/mL (≈ 3.61 µM) | 4 µg/mL (≈ 3.61 µM) | 8 µg/mL | 8 µg/mL | 8 µg/mL | 16 µg/mL | 16 µg/mL | 32 µg/mL | 8 µg/mL | 16 µg/mL
C=CCCCC(C)(NC(=O)[C@H](CC(C)C)NC(=O)[C@H](CCCCN)NC(=O)[C@H](CCCCN)NC(=O)[C@H](CC(C)C)NC(=O)[C@H](CC(C)C)NC(=O)[C@H](CCCCN)NC(=O)[C@H](CC(C)C)NC(=O)[C@@H](N)Cc1ccccc1)C(N)=O (stereo partly drawn) [Feleucin-K70] (H-FLKLLKKL[ξαMeGly(pent-4-enyl)]-NH2) | 8 µg/mL (≈ 7.01 µM) | 8 µg/mL (≈ 7.01 µM) | 8 µg/mL (≈ 7.01 µM) | 8 µg/mL (≈ 7.01 µM) | 8 µg/mL (≈ 7.01 µM) | 8 µg/mL (≈ 7.01 µM) | 8 µg/mL (≈ 7.01 µM) | 4 µg/mL | 8 µg/mL | 4 µg/mL | 8 µg/mL | 8 µg/mL | 32 µg/mL | 8 µg/mL | 16 µg/mL
